Data: patent publication US20030036184A1 (priority 2000, published 2003)

Tests used:
Assay in all cases: PDE assay for IC50 measurements (SPA, cell lysate enzyme)
Type in all cases: biochemical
PDE7(101-450) = target: T1, PDE7(101-450) (Homo sapiens, UniProt Q13946); settings: PDE7(101-450)
T1 construct: made in house; host or cells: CHO (EcRCHO) cells, transient transfection; crude lysate supernatant
Protocol: (§1) The cell lysates containing PDE7A1 (full length or the truncated forms) were used as enzyme source. PDE assays were performed in 96-well plates in a final volume of […] at pH 8 comprising: 2 μL of compound dissolved in DMSO at 8 different concentrations, 40 mM TRIS, 10 mM MgCl2, 50 nM [^3H]-cAMP (Amersham) and enzyme at the appropriate concentration. Plates were incubated for 10 min at 37° C. in a heater/shaker and stopped by addition of 20 μL Yttrium silicate beads (Scintillation Proximity Assay, Amersham). Enzyme activity was read on a Topcount reader (Packard). Substrate depletion never exceeded 15% of the initial amount. The given IC50s represent the concentration of compound leading to 50% inhibition of the cAMP hydrolysis versus control. They are calculated using a classical sigmoidal model with Hill slope fixed to 1.
(§2) The cell lysates containing recombinant PDE7A1 (full length or the truncated forms) were used as enzyme source. PDE assays were performed in 96-well plates in a final volume of 100 μL at pH 8 comprising: […] of compound dissolved in DMSO at 8 different concentrations, 40 mM TRIS, 10 mM MgCl2, 50 nM [^3H]-cAMP and enzyme at the appropriate concentration.
(§3) Plates were incubated for 10 min at 37° C. in a heater/shaker and stopped by addition of 20 μL Yttrium silicate beads (Scintillation Proximity Assay, Amersham).
(§4) Enzyme activity was determined by measuring the radioactivity on a Topcount reader (Packard).
(§5) Substrate depletion never exceeded 15% of the initial amount. The given IC50s represent the concentration of compound leading to 50% inhibition of the cAMP hydrolysis versus control. They are calculated using a classical sigmoidal model with Hill slope

PDE7(101-483) = target: T2, PDE7(101-483) (Homo sapiens, UniProt Q13946)
T2 construct: this catalytic fragment (101-482) fragment was co-expressed; made in house; host or cells: CHO (EcRCHO) cells, transient transfection; crude lysate supernatant
T2 sequence (Q13946 101-482): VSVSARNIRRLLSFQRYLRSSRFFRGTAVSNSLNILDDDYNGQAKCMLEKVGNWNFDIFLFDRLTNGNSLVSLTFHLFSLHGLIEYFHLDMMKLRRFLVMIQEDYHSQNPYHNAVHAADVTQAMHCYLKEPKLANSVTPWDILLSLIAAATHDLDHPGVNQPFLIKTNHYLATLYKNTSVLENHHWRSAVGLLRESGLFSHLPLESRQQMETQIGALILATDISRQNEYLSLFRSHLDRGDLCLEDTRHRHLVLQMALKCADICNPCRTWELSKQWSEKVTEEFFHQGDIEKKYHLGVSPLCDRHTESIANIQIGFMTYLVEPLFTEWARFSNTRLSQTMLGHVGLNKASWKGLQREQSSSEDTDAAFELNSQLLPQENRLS
Protocol: as §1, §2, §3, §4, §5

[1] = target: T3, recombinant full length PDE7A1 (Homo sapiens, UniProt Q13946); settings: recombinant full length PDE7A1
T3 construct: the full length PDE7A1 protein (1-483); made in house; host or cells: CHO (EcRCHO) cells, transient transfection, cytosol/lysate supernatant; Sf21/baculovirus also described
T3 sequence (Q13946 whole entry): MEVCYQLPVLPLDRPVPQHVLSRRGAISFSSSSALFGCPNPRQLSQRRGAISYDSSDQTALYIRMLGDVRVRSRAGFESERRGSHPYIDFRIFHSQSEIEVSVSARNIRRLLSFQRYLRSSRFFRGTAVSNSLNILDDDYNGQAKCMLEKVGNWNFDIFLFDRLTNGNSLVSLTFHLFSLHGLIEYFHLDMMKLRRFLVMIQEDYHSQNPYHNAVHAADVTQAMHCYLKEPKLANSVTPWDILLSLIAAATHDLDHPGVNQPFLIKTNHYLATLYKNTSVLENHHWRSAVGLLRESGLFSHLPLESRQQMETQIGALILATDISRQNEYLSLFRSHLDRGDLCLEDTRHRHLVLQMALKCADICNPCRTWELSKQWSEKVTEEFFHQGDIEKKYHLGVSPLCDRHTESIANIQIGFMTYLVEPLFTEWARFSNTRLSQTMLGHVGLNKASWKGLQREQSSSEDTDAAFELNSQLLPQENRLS
Protocol: as §1, §2, §3, §4, §5

Measured: IC50

T1 sequence (Q13946 101-450): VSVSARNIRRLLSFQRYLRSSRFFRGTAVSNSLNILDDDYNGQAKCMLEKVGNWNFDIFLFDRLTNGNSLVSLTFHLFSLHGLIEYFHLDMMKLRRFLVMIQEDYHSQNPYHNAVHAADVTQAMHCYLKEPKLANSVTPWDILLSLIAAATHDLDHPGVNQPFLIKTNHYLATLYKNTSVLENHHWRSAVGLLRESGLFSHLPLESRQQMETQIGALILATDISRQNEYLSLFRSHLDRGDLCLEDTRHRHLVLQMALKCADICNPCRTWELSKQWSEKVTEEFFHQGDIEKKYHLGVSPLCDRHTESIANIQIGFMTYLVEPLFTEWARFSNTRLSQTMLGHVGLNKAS

CC(C)Cn1c(=O)n(C)c(=O)c2[nH]cnc21 [IBMX, 3 isobutyl-1-methyl xanthine]
13 to 14 µM: all assays above
